Results: ChEMBL document CHEMBL5131567, “3,5,7-Substituted Pyrazolo[4,3-d]Pyrimidine Inhibitors of Cyclin-Dependent Kinases and Cyclin K Degraders” (J Med Chem, 2022)
The source made the active and inactive calls. The rule behind the calls is not given here.

What was measured:
[1] = Antiproliferative activity against human MINO cells assessed as cell growth inhibition measured after 72 hrs by resazurin dye based microplate reader analysis; type: functional
[2] = Antiproliferative activity against human UPF1H cells assessed as cell growth inhibition measured after 72 hrs by resazurin dye based microplate reader analysis; type: functional
[3] = molecular target: Cyclin-dependent kinase 2/cyclin E1 (Homo sapiens, UniProt P24941); assay: Inhibition of His-tagged CDK2/cyclin E1 (unknown origin) expressed in Sf9 cells using histone H1 as substrate in presence of ATP and [gamma33-P]ATP by radioisotope filter binding assay; type: cell-based
MINO = assay: Downregulation of cyclin K levels in human MINO cells up to 5 uM incubated for 2 hrs by immunoblotting analysis; type: functional, cell-based
NU-DUL-1 = assay: Antiproliferative activity against human NU-DUL-1 cells assessed as cell growth inhibition measured after 72 hrs by resazurin dye based microplate reader analysis; type: functional
DB = assay: Antiproliferative activity against human DB cells assessed as cell growth inhibition measured after 72 hrs by resazurin dye based microplate reader analysis; type: functional
[4] = Antiproliferative activity against human OCI-Ly2 cells assessed as cell growth inhibition measured after 72 hrs by resazurin dye based microplate reader analysis; type: functional
OCI-LY19 = assay: Antiproliferative activity against human OCILY19 cells assessed as cell growth inhibition measured after 72 hrs by resazurin dye based microplate reader analysis; type: functional
U2932 = assay: Antiproliferative activity against human U2932 cells assessed as cell growth inhibition measured after 72 hrs by resazurin dye based microplate reader analysis; type: functional
SUD4 = assay: Antiproliferative activity against human SU-DHL-4 cells assessed as cell growth inhibition measured after 72 hrs by resazurin dye based microplate reader analysis; type: functional
[5] = Antiproliferative activity against human Ri-1 cells assessed as cell growth inhibition measured after 72 hrs by resazurin dye based microplate reader analysis; type: functional
[6] = molecular target: Cyclin-dependent kinase 2/G1/S-specific cyclin-D1 (Homo sapiens, UniProt P24385+P24941); type: cell-based, Sf9
[7] = Inhibition of GST-tagged human CDK5/p25 expressed in Sf9 cells using histone H1 as substrate in presence of ATP and [gamma33-P] ATP by radioisotope filter binding assay
CDK9/cyclin T1 = CDK9/cyclin T1 (Homo sapiens, UniProt P50750); assay: Inhibition of GST-tagged human CDK9/Cyclin T1 expressed in Sf9 cells using (YSPTSPS)2KK peptide as substrate in presence of ATP and [gamma33-P] ATP by radioisotope filter binding assay; type: cell-based
CDK12/Cyclin K = CDK12/Cyclin K (Homo sapiens, UniProt Q9NYV4); assay: Inhibition of GST-tagged human CDK12/Cyclin K expressed in Sf9 cells using RBER-IRStide peptide as substrate in presence of ATP and [gamma33-P] ATP by radioisotope filter binding assay
[8] = molecular target: Cyclin-dependent kinase 13/Cyclin-K (Homo sapiens, UniProt Q14004); assay: Inhibition of GST-tagged human CDK13/Cyclin K expressed in Sf9 cells using RBER-IRStide peptide as substrate in presence of ATP and [gamma33-P] ATP by radioisotope filter binding assay
[9] = molecular target: Serine/threonine-protein kinase PAK 4 (Homo sapiens) (UniProt O96013); assay: Inhibition of human PAK4 (2 to 591 residues) expressed in Escherichia coli expression system at 1 uM using RRRLSFAEPG peptide as substrate incubated for 30 mins in presence of [gamma33P]ATP by scintillation based radioactive filter binding assay relative to control
[10] = molecular target: Dual specificity tyrosine-phosphorylation-regulated kinase 1A (Homo sapiens) (UniProt Q13627); assay: Inhibition of human DYRK1A (1 to 502 residues) expressed in Escherichia coli expression system at 1 uM using KKISGRLSPIMTEQ peptide as substrate incubated for 30 mins in presence of [gamma33P]ATP by scintillation based radioactive filter binding assay relative to control
[11] = molecular target: Glycogen synthase kinase-3 beta (Homo sapiens) (UniProt P49841); assay: Inhibition of human GSK3beta (2 to 420 residues) expressed in Sf21 cells at 1 uM using YRRAAVPPSPSLSRHSSPHQS(PO4)EDEEE peptide as substrate incubated for 30 mins in presence of [gamma33P]ATP by scintillation based radioactive filter binding assay relative to control

Chain of CDK9/cyclin T1 (O60563 whole entry): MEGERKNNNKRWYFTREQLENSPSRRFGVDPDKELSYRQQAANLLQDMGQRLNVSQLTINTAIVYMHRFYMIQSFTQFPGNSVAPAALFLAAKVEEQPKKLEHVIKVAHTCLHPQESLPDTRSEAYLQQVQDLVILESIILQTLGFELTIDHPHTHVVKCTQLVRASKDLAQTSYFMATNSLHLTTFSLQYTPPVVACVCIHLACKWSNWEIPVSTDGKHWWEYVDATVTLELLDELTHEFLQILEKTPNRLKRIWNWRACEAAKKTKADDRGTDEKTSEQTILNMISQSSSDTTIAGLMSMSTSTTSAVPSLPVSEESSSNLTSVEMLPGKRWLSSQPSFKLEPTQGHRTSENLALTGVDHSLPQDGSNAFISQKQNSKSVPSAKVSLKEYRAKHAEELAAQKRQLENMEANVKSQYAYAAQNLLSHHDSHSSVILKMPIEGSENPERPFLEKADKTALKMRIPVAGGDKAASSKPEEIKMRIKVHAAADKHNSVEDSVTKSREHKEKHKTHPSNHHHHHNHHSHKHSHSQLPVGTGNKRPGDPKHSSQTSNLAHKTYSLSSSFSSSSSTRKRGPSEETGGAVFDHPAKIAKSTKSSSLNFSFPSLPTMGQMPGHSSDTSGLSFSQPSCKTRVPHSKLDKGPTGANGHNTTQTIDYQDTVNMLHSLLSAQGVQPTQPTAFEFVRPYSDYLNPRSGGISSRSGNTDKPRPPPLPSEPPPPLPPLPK
Chain of CDK9/cyclin T1 (P50750 whole entry): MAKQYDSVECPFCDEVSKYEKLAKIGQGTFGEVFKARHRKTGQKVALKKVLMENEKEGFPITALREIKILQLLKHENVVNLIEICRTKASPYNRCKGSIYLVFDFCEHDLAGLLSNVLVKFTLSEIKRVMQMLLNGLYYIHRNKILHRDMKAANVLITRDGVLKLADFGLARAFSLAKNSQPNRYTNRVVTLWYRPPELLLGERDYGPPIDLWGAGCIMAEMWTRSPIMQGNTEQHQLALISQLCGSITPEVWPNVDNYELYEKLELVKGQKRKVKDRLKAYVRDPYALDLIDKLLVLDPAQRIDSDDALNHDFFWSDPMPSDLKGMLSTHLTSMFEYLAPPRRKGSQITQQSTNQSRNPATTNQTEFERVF
Chain of Cyclin-dependent kinase 13/Cyclin-K (Q14004 whole entry, the tested form may be a part): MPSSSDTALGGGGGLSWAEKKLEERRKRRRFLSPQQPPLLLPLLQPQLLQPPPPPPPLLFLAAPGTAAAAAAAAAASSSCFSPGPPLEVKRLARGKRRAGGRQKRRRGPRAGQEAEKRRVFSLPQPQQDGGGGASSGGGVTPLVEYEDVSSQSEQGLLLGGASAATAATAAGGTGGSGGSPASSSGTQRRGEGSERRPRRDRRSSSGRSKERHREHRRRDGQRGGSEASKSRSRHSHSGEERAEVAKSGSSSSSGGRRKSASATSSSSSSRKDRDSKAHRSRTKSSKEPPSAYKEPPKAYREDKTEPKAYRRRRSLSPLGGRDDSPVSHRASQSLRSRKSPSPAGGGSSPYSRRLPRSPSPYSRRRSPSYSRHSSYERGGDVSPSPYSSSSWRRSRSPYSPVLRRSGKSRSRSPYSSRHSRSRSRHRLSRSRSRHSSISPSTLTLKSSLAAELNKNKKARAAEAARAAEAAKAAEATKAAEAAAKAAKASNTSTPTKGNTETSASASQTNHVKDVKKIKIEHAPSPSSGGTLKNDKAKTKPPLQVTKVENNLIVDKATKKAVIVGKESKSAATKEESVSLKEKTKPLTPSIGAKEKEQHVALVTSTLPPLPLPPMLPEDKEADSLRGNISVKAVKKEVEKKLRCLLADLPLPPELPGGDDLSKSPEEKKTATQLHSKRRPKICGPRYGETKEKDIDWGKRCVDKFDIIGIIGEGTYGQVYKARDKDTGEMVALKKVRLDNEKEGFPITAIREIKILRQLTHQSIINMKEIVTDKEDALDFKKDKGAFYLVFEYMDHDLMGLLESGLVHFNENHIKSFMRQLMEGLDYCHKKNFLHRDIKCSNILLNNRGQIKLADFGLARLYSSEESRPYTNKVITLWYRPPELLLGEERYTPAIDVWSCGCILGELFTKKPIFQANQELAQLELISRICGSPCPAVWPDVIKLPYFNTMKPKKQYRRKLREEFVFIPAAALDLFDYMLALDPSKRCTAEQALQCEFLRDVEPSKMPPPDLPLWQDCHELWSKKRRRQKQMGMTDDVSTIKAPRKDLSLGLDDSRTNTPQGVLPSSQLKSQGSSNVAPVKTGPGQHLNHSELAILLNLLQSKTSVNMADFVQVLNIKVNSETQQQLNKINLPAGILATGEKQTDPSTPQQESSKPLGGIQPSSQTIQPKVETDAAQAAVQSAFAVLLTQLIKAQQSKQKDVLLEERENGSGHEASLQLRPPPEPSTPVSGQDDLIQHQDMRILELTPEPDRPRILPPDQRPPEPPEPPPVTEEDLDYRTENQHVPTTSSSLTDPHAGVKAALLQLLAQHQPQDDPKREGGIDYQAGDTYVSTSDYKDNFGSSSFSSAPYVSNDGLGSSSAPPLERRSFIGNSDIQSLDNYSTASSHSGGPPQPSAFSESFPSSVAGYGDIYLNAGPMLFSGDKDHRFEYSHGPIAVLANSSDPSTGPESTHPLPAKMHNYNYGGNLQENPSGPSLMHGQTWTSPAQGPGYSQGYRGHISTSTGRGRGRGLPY
Chain of Cyclin-dependent kinase 13/Cyclin-K (O75909 whole entry, further chain, the tested form may be a part): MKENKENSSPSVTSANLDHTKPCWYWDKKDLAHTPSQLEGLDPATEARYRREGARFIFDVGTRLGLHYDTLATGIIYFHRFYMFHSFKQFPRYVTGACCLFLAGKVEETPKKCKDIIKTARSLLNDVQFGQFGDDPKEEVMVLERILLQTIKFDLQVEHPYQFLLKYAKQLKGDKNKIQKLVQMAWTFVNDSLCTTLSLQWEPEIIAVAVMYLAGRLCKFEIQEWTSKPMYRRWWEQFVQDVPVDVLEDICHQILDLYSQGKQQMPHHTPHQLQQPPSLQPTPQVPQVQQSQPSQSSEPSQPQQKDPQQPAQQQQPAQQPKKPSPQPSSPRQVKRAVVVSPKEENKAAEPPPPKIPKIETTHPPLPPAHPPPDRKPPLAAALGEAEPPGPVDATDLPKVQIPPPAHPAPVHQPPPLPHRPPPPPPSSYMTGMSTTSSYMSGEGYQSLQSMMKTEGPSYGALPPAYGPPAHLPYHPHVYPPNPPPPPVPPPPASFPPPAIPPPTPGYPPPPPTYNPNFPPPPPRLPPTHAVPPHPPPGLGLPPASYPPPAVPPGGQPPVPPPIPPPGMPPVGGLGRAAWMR
Chain of CDK12/Cyclin K (O75909 whole entry): as the sequence (O75909 whole entry, further chain, the tested form may be a part) above
Chain of CDK12/Cyclin K (Q9NYV4 whole entry): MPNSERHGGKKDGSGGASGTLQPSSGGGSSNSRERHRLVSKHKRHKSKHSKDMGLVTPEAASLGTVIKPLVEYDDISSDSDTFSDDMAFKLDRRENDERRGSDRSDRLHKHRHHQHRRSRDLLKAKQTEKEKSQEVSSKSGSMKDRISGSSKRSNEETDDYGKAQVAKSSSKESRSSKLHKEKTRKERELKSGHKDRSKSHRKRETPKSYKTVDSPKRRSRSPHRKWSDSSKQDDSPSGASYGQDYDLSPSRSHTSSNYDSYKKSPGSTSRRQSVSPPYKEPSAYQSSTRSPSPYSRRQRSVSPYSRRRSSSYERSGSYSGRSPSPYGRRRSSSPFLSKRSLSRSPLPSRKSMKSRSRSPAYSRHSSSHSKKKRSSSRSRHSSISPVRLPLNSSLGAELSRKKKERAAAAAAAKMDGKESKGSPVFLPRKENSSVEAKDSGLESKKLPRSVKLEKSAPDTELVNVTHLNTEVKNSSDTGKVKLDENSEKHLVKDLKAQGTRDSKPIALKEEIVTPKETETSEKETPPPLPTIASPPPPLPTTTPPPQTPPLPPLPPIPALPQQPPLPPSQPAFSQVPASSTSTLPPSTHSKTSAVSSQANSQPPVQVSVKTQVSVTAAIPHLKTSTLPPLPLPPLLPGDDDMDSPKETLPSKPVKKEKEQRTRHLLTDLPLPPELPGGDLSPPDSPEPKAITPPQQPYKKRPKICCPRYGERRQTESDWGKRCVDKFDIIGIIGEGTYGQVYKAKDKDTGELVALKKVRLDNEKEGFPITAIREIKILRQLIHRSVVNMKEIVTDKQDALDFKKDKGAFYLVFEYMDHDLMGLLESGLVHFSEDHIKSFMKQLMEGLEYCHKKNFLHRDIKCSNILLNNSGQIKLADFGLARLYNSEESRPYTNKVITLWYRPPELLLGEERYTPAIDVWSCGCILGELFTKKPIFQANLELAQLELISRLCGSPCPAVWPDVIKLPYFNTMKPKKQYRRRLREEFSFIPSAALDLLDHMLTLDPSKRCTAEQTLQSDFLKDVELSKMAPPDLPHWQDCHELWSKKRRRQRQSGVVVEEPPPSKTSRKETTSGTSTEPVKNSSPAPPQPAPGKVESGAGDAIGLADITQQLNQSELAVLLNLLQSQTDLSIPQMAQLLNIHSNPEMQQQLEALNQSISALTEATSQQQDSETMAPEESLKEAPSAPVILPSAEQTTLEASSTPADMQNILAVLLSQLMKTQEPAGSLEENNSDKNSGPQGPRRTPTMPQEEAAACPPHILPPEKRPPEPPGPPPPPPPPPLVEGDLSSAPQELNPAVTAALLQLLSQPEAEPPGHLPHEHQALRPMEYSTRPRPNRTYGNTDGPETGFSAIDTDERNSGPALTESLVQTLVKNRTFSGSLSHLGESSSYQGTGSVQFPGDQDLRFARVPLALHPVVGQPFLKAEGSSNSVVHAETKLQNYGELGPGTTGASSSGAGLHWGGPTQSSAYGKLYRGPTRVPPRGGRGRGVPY

| IC50 [3] [nM] | Compound | GI50 [1] [nM] | GI50 [2] [nM] | also measured |
| --- | --- | --- | --- | --- |
| 464 | CC(C)c1n[nH]c2c(NCc3ccc(-c4c[nH]cn4)cc3)nc(S)nc12 | ≥ 10000 | ≥ 10000 | – |
| 2 | CC(C)c1[nH]nc2c(NCc3ccc(-n4cccn4)cc3)nc(SCCN)nc12 | 1 | 4 | – |
| 4 | CC(C)c1n[nH]c2c(NCc3ccc(-n4ccnc4)cc3)nc(SCCN)nc12 | 927 | 1770 | GI50 (NU-DUL-1): 384 nM; GI50 (DB): 599 nM; GI50 [4]: 170 nM; GI50 (OCI-LY19): 3560 nM; GI50 (U2932): 689 nM; GI50 (SUD4): 435 nM; GI50 [5]: 435 nM; IC50 [6]: > 1000 nM; IC50 [7]: 54 nM; IC50 (CDK9/cyclin T1): 11 nM; IC50 (CDK12/Cyclin K): 73 nM; IC50 [8]: 67 nM |
| 9 | OCCSc1nc(NCc2ccc(-c3ccccn3)cc2)c2[nH]nc(C3CCC3)c2n1 | 58 | 152 | – |
| 12 | CC(C)c1n[nH]c2c(NCc3ccc(-n4ccnc4)cc3)nc(SCCO)nc12 | 1480 | 6470 | – |
| 12 | NCCSc1nc(NCc2ccc(-c3ccccn3)cc2)c2[nH]nc(C3CCCC3)c2n1 | 31 | 111 | GI50 (NU-DUL-1): 200 nM; GI50 (DB): 107 nM; GI50 [4]: 47 nM; GI50 (OCI-LY19): 915 nM; GI50 (U2932): 265 nM; GI50 (SUD4): 180 nM; GI50 [5]: 330 nM; IC50 [6]: > 1000 nM; IC50 [7]: 127 nM; IC50 (CDK9/cyclin T1): 38 nM; IC50 (CDK12/Cyclin K): 304 nM; IC50 [8]: 334 nM |
| 5 | NCCSc1nc(NCc2ccc(-c3ccccn3)cc2)c2[nH]nc(C3CCC3)c2n1 | 11 | 19 | GI50 (NU-DUL-1): 17 nM; GI50 (DB): 22 nM; GI50 [4]: 40 nM; GI50 (OCI-LY19): 350 nM; GI50 (U2932): 44 nM; GI50 (SUD4): 30 nM; GI50 [5]: 23 nM; IC50 [6]: 940 nM; IC50 [7]: 24 nM; IC50 (CDK9/cyclin T1): 12 nM; IC50 (CDK12/Cyclin K): 29 nM; IC50 [8]: 12 nM |
| 978 | CC(C)c1n[nH]c2c(NCc3ccc(-c4cnccn4)cc3)nc(S)nc12 | 8900 | ≥ 10000 | – |

More lines, now with the values behind:

| Compound | IC50 [3] [nM] | GI50 [1] [nM] | GI50 [2] [nM] | also measured |
| --- | --- | --- | --- | --- |
| CC(C)c1[nH]nc2c(NCc3ccc(-n4cccn4)cc3)nc(SCC(O)CN)nc12 (stereo not given) | 6 | 43 | 95 | – |
| CC[C@H](CO)Nc1nc(NCc2ccccc2)c2ncn(C(C)C)c2n1 [SELICICLIB] | – | 1480 | 3070 | – |
| CSc1nc(NCc2ccc(-n3cccn3)cc2)c2n[nH]c(C(C)C)c2n1 | 24 | 310 | 810 | – |
| CN(C)C/C=C/C(=O)Nc1ccc(C(=O)N2CCC[C@@H](Nc3ncc(Cl)c(-c4c[nH]c5ccccc45)n3)C2)cc1 | – | – | – | Activity (MINO): Active |
| CCC(O)CSc1nc(NCc2ccc(-n3cccn3)cc2)c2n[nH]c(C(C)C)c2n1 (stereo not given) | 25 | 22 | 591 | – |
| CC(C)c1[nH]nc2c(NCc3ccc(-n4cccn4)cc3)nc(SCCN(C)C)nc12 | – | 18 | 84 | – |
| CC(C)c1[nH]nc2c(NCc3ccc(-n4cccn4)cc3)nc(SCCO)nc12 | 5 | 6 | 20 | – |
| CC(O)CSc1nc(NCc2ccc(-n3cccn3)cc2)c2n[nH]c(C(C)C)c2n1 (stereo not given) | 6 | 18 | 61 | GI50 (NU-DUL-1): 62 nM; GI50 (DB): 78 nM; GI50 [4]: 55 nM; GI50 (OCI-LY19): 101 nM; GI50 (U2932): 59 nM; GI50 (SUD4): 105 nM; GI50 [5]: 61 nM; IC50 [6]: > 1000 nM; IC50 [7]: 179 nM; IC50 (CDK9/cyclin T1): 62 nM; IC50 (CDK12/Cyclin K): 156 nM; IC50 [8]: 122 nM; inhibition [9]: > 50%; inhibition [10]: > 50%; inhibition [11]: > 50% |
| CC(C)c1n[nH]c2c(NCc3ccc(-c4c[nH]cn4)cc3)nc(SCCO)nc12 | – | 490 | 1420 | – |
| CC(C)c1[nH]nc2c(NCc3ccc(-n4cccn4)cc3)nc(SCC(C)(C)O)nc12 | – | 34 | 87 | – |
| CC(C)c1[nH]nc2c(NCc3ccc(-n4cccn4)cc3)nc(SCC(O)CO)nc12 (stereo not given) | 5 | 9 | 26 | – |
| CC(C)c1[nH]nc2c(NCc3ccc(-n4cccn4)cc3)nc(SCC(N)CN)nc12 (stereo not given) | 19 | 410 | 580 | – |
| CC(C)c1n[nH]c2c(NCc3ccc(-c4cnccn4)cc3)nc(SCCN)nc12 | – | 22 | 69 | GI50 (NU-DUL-1): 54 nM; GI50 (DB): 75 nM; GI50 [4]: 33 nM; GI50 (OCI-LY19): 445 nM; GI50 (U2932): 93 nM; GI50 (SUD4): 62 nM; GI50 [5]: 54 nM; IC50 [6]: > 1000 nM; IC50 [7]: 157 nM; IC50 (CDK9/cyclin T1): 23 nM; IC50 (CDK12/Cyclin K): 50 nM; IC50 [8]: 22 nM |
| CC(C)c1[nH]nc2c(NCc3ccc(-n4cccn4)cc3)nc(SCCCN(C)C)nc12 | 75 | 17 | 39 | – |
| CC(C)c1[nH]nc2c(NCc3ccc(-n4cccn4)cc3)nc(S(C)(=O)=O)nc12 | 53 | 30 | 250 | – |
| CC(O)CNc1nc(NCc2ccc(-n3cccn3)cc2)c2n[nH]c(C(C)C)c2n1 (stereo not given) | 37 | 16 | 42 | – |
| CC(C)c1[nH]nc2c(NCc3ccc(-n4cccn4)cc3)nc(SCC(C)(C)N)nc12 | – | 9 | 14 | – |
| CC(C)c1n[nH]c2c(NCc3ccc(-n4ccnc4)cc3)nc(S)nc12 | 2300 | ≥ 10000 | ≥ 10000 | – |
| CC(C)c1[nH]nc2c(NCc3ccc(-n4cccn4)cc3)nc(S)nc12 | 256 | 5900 | ≥ 10000 | – |
| CC(C)c1n[nH]c2c(NCc3ccc(-c4cnccn4)cc3)nc(SCCO)nc12 | – | 16 | 56 | – |
| CCc1cnn2c(NCc3ccc[n+]([O-])c3)cc(N3CCCC[C@H]3CCO)nc12 [DINACICLIB] | – | 21 | 22 | GI50 (NU-DUL-1): 10 nM; GI50 (DB): 14 nM; GI50 [4]: 10 nM; GI50 (OCI-LY19): 20 nM; GI50 (U2932): 11 nM; GI50 (SUD4): 9 nM; GI50 [5]: 15 nM; IC50 [7]: 13 nM; IC50 [8]: 21 nM; Activity (MINO): Active |
